The results in this text go back to patent publication US11332473B2, “Substituted pyrazolo[3,4-d]pyrimidines as Wee1 inhibitors” (NUVATION BIO INC., priority 2019, dated 2022).

Assay [1] deals with WEE1 kinase enzyme (Homo sapiens (Human), UniProt P30291). The assay is described as follows: WEE1 IC50 determination, LanthaScreen Terbium Labeled TR-FRET kinase assay. Type of assay: biochemical. Conditions: WEE1 enzyme 1 nM, ATP 10 μM. As for the experimental part: IC50 values of compounds against WEE1 kinase enzyme were determined by LanthaScreen™ Terbium Labeled TR-FRET assay. Kinase assays were performed in 1X kinase buffer (#PV6135, Invitrogen, Life Technologies Grand Island, N.Y.) where total reaction volume was 10 μL in low-volume 384-well plates (#4511, Corning). Serially diluted compounds (3-fold) were incubated with WEE1 Enzyme (1 nM) (#PR7373A, Invitrogen, Life Technologies, Grand Island, N.Y.) for 10 min; a mixture of ATP (10 μM) (#A1852, Sigma, St. Louis, Mo.) and fluorescent-PolyGT substrate (200 nM) (#PV3610, Invitrogen, Life Technologies Grand Island, N.Y.) was added and incubated in dark at room temperature for 1 h. After 1 h, 10 μL stop solution containing Terbium labeled antibody (4 nM) (#PV3529, Invitrogen, Life Technologies Grand Island, N.Y.) and EDTA (#E5134, Sigma, St. Louis, Mo.) (20 mM) in TR-FRET dilution buffer (#PV3574, Invitrogen, Life Technologies Grand Island, N.Y.) was added. Readings were taken in a Synergy Neo Plate reader (BioTek, Winooski, Vt.) at single excitation of 340 nm and dual emission at 495 nm and 520 nm respectively.
The % activity of test samples was calculated as (Sample−Min)*100/(Max−Min). [Max: DMSO control, complete reaction with enzyme & DMSO and Min: No enzyme & DMSO].

Assay [2] has as its target PKMYT1 kinase (Homo sapiens (Human), UniProt Q99640). The assay is described as follows: PKMYT1 IC50 determination, HotSpot Kinase Assay. The format is biochemical. To be noted: 10 μM ATP, 33P-ATP, Myelin Basic Protein substrate. As for the experimental part:
Inhibition of PKMYT1 kinase activity by test compounds was measured by the HotSpot Kinase Assay at Reaction Biology Corporation (Malvern, Pa.). Briefly, Myelin Basic Protein substrate was prepared in Reaction Buffer (20 mM Hepes (pH 7.5), 10 mM MgCl2, 1 mM EGTA, 0.01% Brij35, 0.02 mg/mL BSA, 0.1 mM Na3VO4, 2 mM DTT, 1% DMSO). PKMYT1 kinase was delivered into the substrate solution and gently mixed. Test compounds in 100% DMSO were added into the kinase reaction mixture by Acoustic technology (Echo550; nanoliter range) and incubated for 20 min at room temperature. ^33P-ATP was delivered into the reaction mixture to initiate the reaction. Reactions were carried out at 10 μM ATP. After a 2 hour incubation at room temperature, kinase activity was detected by P81 filter-binding method. […] A nonlinear regression model with a sigmoidal dose response and variable slope within GraphPad Prism (GraphPad Software, San Diego, Calif.) was used to calculate the IC50 value of individual test compounds.

For assay [3], the system named is A427 cells. The assay is described as follows: Cytotoxicity assay in A427 cell line (resazurin). The format is cell-based. Conditions: Homo sapiens, A-427; A427 lung epithelial cell line, 72 hr, inhibition of proliferation. On the procedure: A427 (HTB-53; ATCC), a lung epithelial cell line, was seeded in medium (MEM, 41090101; Gibco) at a cell count of 1500 cells per 100 μL per well in a 96 well edge plate (167425; ThermoFisher). Cells were allowed to grow at 37° C. for 24 hr in 5% CO2 environment (culture conditions) in a Nuaire incubator (humidified). Serially diluted test compounds (100 μL) within the desired testing concentration ranges were added to the culture plate and the cells were further incubated in culture conditions for 72 hr. The experiment was terminated at the designated incubation time by replacing the medium with 100 μL of 1 mM of resazurin (R7017; Sigma) prepared in culture medium, and the plates were further incubated in culture conditions for 4-6 hr. Fluorescence was recorded using a multimodal plate reader (Biotek Synergy Neo) at an excitation wavelength of 535 nm and emission wavelength of 590 nm to obtain relative fluorescence units. Data were analysed as follows: the background fluorescence (blank containing only medium) value was subtracted from each reading and normalized with the vehicle control (DMSO treated cells) to obtain percent survival/proliferation. Percent survival was subtracted from 100 to get the percent inhibition of proliferation which was used to calculate IC50 values. Potency of compounds in other cell lines (such as A549, AsPc-1, Panc 10.05, A172, U-87MG) may be determined in an analogous manner.

SMILES strings stand for the structures. pIC50: −log10 of the molar value.

PKMYT1 kinase, sequence (Q99640 whole entry): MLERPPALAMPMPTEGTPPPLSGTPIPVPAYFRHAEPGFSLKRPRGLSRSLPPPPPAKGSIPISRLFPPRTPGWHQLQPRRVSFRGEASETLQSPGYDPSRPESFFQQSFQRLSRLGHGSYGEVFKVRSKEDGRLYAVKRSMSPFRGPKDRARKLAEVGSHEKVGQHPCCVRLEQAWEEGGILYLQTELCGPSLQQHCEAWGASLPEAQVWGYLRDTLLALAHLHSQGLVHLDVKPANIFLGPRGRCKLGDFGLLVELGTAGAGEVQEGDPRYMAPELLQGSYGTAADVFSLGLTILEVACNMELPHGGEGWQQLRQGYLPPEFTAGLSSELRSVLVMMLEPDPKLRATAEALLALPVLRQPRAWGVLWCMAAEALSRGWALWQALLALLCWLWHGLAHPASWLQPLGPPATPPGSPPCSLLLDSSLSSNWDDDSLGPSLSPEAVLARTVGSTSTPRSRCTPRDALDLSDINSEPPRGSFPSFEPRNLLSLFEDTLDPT
WEE1 kinase enzyme, sequence (P30291 whole entry): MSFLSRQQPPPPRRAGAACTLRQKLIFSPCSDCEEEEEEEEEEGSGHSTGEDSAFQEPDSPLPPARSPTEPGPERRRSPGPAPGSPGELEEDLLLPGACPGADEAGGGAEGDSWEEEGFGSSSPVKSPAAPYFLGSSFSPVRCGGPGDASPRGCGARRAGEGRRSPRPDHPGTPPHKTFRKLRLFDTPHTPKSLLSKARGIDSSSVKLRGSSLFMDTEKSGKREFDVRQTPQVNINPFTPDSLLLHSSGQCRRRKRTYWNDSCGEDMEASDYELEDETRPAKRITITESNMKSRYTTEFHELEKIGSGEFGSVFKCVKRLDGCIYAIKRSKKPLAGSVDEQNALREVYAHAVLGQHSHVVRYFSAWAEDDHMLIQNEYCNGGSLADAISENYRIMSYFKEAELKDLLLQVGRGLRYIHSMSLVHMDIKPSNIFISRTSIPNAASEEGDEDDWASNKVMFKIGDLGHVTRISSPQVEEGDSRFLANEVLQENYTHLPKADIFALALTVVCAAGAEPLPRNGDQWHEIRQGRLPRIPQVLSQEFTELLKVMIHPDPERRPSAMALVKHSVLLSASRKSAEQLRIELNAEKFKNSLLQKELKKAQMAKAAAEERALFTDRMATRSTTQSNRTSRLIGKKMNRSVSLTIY

With `CC(C)(F)c1nc(-n2c3nc(Nc4ccc5c(c4)CCNC5(C)C)ncc3c(=O)n2C2CC2)ccc1F` [1.5, 2-cyclopropyl-6-((1,1-dimethyl-1,2,3,4-tetrahydroisoquinolin-6-yl)amino)-1-(5-fluoro-6-(2-fluoropropan-2-yl)pyridin-2-yl)-1,2-dihydro-3H-pyrazolo[3,4-d]pyrimidin-3-one], the negative-log IC50 (pIC50) is 8.30 in assay [1], 5.26 in assay [2] and 5.12 in assay [3].
As to `N#CC1(c2cccc(-n3c4nc(Nc5ccc6c(c5)CNCC6)ncc4c(=O)n3CC(F)(F)F)n2)CC1` [1.32, 1-(6-(3-oxo-6-(1,2,3,4-tetrahydroisoquinolin-7-ylamino)-2-(2,2,2-trifluoroethyl)-2,3-dihydro-1H-pyrazolo[3,4-d]pyrimidin-1-yl)pyridin-2-yl)cyclopropanecarbonitrile], the values for the negative-log IC50 (pIC50) in assay [1], in assay [2] and in assay [3] were 8.10, 6.12 and 6.06, respectively.
On to `CCn1c(=O)c2cnc(Nc3ccc4c(c3)CCNC4)nc2n1-c1cccc(C2(C#N)CC2)n1` [1.37, 1-(6-(2-ethyl-3-oxo-6-((1,2,3,4-tetrahydroisoquinolin-6-yl)amino)-2,3-dihydro-1H-pyrazolo[3,4-d]pyrimidin-1-yl)pyridin-2-yl)cyclopropane-1-carbonitrile], for which the pIC50 is 7.89 in assay [1], 6.16 in assay [2] and 6.18 in assay [3].
For `CCn1c(=O)c2cnc(Nc3ccc4c(c3)CCNC4(C)C)nc2n1-c1cccc(C2(C#N)CC2)n1` [1.39, 1-(6-(6-(1,1-dimethyl-1,2,3,4-tetrahydroisoquinolin-6-ylamino)-2-ethyl-3-oxo-2,3-dihydro-1H-pyrazolo[3,4-d]pyrimidin-1-yl)pyridin-2-yl)cyclopropanecarbonitrile], the pIC50 in assay [1] is 9.00; in assay [3] it was 6.29.
`CCn1c(=O)c2cnc(Nc3ccc4c(c3)CNCC4(C)C)nc2n1-c1cccc(C2(C#N)CC2)n1` [1.40, 1-(6-(6-((4,4-dimethyl-1,2,3,4-tetrahydroisoquinolin-7-yl)amino)-2-ethyl-3-oxo-2,3-dihydro-1H-pyrazolo[3,4-d]pyrimidin-1-yl)pyridin-2-yl)cyclopropane-1-carbonitrile]: the results for the pIC50 in assay [1] and in assay [2] were 8.40 and 6.92, respectively.
In the case of `CCn1c(=O)c2cnc(Nc3ccc4c(c3)CCNC43CC3)nc2n1-c1cccc(C2(C#N)CC2)n1` [1.42, 1-(6-(6-(2′,3′-dihydro-1^1H-spiro[cyclopropane-1,4′-isoquinoline]-7′-ylamino)-2-ethyl-3-oxo-2,3-dihydro-1H-pyrazolo[3,4-d]pyrimidin-1-yl)pyridin-2-yl)cyclopropanecarbonitrile], the negative logarithm of the IC50 (pIC50) in assay [1] was 9.00; in assay [3], 6.59.
Take `CC(C)n1c(=O)c2cnc(Nc3ccc4c(c3)CNCC4)nc2n1-c1cccc(C2(C#N)CC2)n1` [1.44, 1-(6-(2-isopropyl-3-oxo-6-((1,2,3,4-tetrahydroisoquinolin-7-yl)amino)-2,3-dihydro-1H-pyrazolo[3,4-d]pyrimidin-1-yl)pyridin-2-yl)cyclopropane-1-carbonitrile]: the pIC50 is 8.52 in assay [1], 5.93 in assay [2] and 6.05 in assay [3].
Turning to `CCn1c(=O)c2cnc(Nc3ccc4c(c3)CCNC4(C)C)nc2n1-c1ccnc(C2(C#N)CC2)c1` [1.63, 1-(4-(6-((1,1-dimethyl-1,2,3,4-tetrahydroisoquinolin-6-yl)amino)-2-ethyl-3-oxo-2,3-dihydro-1H-pyrazolo[3,4-d]pyrimidin-1-yl)pyridin-2-yl)cyclopropane-1-carbonitrile], the pIC50 was 7.74 in assay [1] and 4.77 in assay [3].
Turning to `CC(C)n1c(=O)c2cnc(Nc3ccc4c(c3)CCNC4)nc2n1-c1ccnc(C2(C#N)CC2)c1` [1.67, 1-(4-(2-isopropyl-3-oxo-6-(1,2,3,4-tetrahydroisoquinolin-6-ylamino)-2,3-dihydro-1H-pyrazolo[3,4-d]pyrimidin-1-yl)pyridin-2-yl)cyclopropanecarbonitrile], the values for the pIC50 in assay [1], in assay [2] and in assay [3] were 7.82, 5.54 and 5.59, respectively.
In the same order, the values of `CCn1c(=O)c2cnc(Nc3ccc4c(c3)CNCC4)nc2n1-c1cccc(C2(CF)CC2)n1` [1.86, 2-ethyl-1-(6-(1-(fluoromethyl)cyclopropyl)pyridin-2-yl)-6-((1,2,3,4-tetrahydroisoquinolin-7-yl)amino)-1,2-dihydro-3H-pyrazolo[3,4-d]pyrimidin-3-one] are 8.70, 5.38 and 6.16.
Turning to `CC(C)n1c(=O)c2cnc(Nc3ccc4c(c3)CCNC4)nc2n1-c1cccc(C2(CF)CC2)n1` [1.91, 1-(6-(1-(fluoromethyl)cyclopropyl)pyridin-2-yl)-2-isopropyl-6-((1,2,3,4-tetrahydroisoquinolin-6-yl)amino)-1,2-dihydro-3H-pyrazolo[3,4-d]pyrimidin-3-one], the figures for the negative-log IC50 (pIC50) in assay [1] and in assay [2] were 8.52 and 5.16, respectively.
Take `CC(C)n1c(=O)c2cnc(Nc3ccc4c(c3)CNCC4)nc2n1-c1ccc(F)c(C(C)(C)O)n1` [1.250, 1-(5-fluoro-6-(2-hydroxypropan-2-yl)pyridin-2-yl)-2-isopropyl-6-((1,2,3,4-tetrahydroisoquinolin-7-yl)amino)-1,2-dihydro-3H-pyrazolo[3,4-d]pyrimidin-3-one]: the values for the pIC50 in assay [1] and in assay [2] were 8.10 and 4.87, respectively.
In the case of `CC(C)n1c(=O)c2cnc(Nc3ccc4c(c3)CNCC43CC3)nc2n1-c1ccc(F)c(C(C)(C)O)n1` [1.254, 6-((2′,3′-dihydro-1′H-spiro[cyclopropane-1,4′-isoquinolin]-7′-yl)amino)-1-(5-fluoro-6-(2-hydroxypropan-2-yl)pyridin-2-yl)-2-isopropyl-1,2-dihydro-3H-pyrazolo[3,4-d]pyrimidin-3-one], the pIC50 is 6.85 in assay [1] and 5.45 in assay [2].
In the same order, the values of `CCn1c(=O)c2cnc(Nc3ccc4c(c3)CNCC4)nc2n1-c1ccc(F)c(C(C)(C)O)n1` [1.262, 2-ethyl-1-(5-fluoro-6-(2-hydroxypropan-2-yl)pyridin-2-yl)-6-((1,2,3,4-tetrahydroisoquinolin-7-yl)amino)-1,2-dihydro-3H-pyrazolo[3,4-d]pyrimidin-3-one] are 8.10 and 4.77.
For the compound `CC(C)n1c(=O)c2cnc(Nc3ccc4c(c3)CNCC4)nc2n1-c1nc(C(C)(C)C#N)ccc1F` [1.322, 2-(5-fluoro-6-(2-isopropyl-3-oxo-6-(1,2,3,4-tetrahydroisoquinolin-7-ylamino)-2,3-dihydro-1H-pyrazolo[3,4-d]pyrimidin-1-yl)pyridin-2-yl)-2-methylpropanenitrile], in assay [2], the negative logarithm of the IC50 (pIC50) was 5.13.
`CCn1c(=O)c2cnc(Nc3ccc4c(c3)CCNC4(C)C)nc2n1-c1nc(C(C)(C)C#N)ccc1F` [1.335, 2-(6-(6-(1,1-dimethyl-1,2,3,4-tetrahydroisoquinolin-6-ylamino)-2-ethyl-3-oxo-2,3-dihydro-1H-pyrazolo[3,4-d]pyrimidin-1-yl)-5-fluoropyridin-2-yl)-2-methylpropanenitrile]: the pIC50 in assay [1] was 8.30; in assay [3] it was 5.32.
